Like-named read-outs stand apart in the source and are kept apart here.
Columns and labels:
IRAK4 [1] = target: T1, IRAK4 (Homo sapiens, UniProt Q9NWZ3); assay: RBC HotSpot Kinase Assay, IRAK4; conditions: IRAK4 IC50
T1 sequence (Q9NWZ3 1-460): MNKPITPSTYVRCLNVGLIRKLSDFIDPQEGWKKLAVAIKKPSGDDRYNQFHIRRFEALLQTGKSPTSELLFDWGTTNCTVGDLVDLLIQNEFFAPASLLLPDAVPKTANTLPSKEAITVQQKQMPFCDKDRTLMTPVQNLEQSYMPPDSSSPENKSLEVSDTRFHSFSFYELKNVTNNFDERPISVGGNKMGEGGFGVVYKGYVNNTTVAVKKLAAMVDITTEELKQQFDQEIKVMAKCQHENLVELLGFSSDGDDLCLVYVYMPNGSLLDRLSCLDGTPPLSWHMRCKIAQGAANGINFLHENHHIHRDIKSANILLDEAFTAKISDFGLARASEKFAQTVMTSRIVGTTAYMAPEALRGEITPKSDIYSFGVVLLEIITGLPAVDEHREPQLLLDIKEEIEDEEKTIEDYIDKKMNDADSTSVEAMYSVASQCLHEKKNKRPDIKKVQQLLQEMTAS

IRAK1 [2] = target: T2, IRAK1 (Homo sapiens, UniProt P51617); assay: DiscoverX KINOMEscan competition binding, IRAK1; parameters: purchased RBC (Reaction Biology) HotSpot assay
T2 sequence (P51617 whole entry): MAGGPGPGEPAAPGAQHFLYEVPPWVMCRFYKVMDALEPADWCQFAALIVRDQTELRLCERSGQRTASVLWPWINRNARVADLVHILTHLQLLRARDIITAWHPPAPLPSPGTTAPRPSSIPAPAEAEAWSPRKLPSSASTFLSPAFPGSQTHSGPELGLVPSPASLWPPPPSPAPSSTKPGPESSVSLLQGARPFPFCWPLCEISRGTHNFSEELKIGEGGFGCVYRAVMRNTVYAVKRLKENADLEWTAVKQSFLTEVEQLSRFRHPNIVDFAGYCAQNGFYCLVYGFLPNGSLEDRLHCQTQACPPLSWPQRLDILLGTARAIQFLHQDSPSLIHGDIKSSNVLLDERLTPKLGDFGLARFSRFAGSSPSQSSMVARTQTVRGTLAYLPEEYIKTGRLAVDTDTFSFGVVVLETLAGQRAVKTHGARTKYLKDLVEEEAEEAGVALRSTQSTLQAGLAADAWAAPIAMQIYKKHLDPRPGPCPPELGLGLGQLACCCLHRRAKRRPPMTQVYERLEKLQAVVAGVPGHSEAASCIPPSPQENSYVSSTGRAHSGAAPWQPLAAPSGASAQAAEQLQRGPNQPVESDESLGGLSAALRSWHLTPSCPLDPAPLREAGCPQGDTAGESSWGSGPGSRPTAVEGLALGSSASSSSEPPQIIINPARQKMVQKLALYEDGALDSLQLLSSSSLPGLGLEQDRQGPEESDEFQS

IRAK1 [3] = target: T2, IRAK1; assay: RBC HotSpot Kinase Assay, IRAK1; conditions: IRAK1 IC50
IRAK4 [4] = target: T1, IRAK4; assay: DiscoverX KINOMEscan competition binding, IRAK4; parameters: purchased RBC (Reaction Biology) HotSpot assay
MOLM14 F691L cells = assay: cells; format: cell-based; conditions: Homo sapiens, MOLM-14, 48 h, 48 hours, Cell Titer Glo; read-out: MOLM14 F691L IC50
MOLM14 D835Y cells = assay: cells; format: cell-based; conditions: Homo sapiens, MOLM-14, 48 h, 48 hours, Cell Titer Glo; read-out: MOLM14 D835Y IC50
FLT3 [5] = target: T3, FLT3 (Homo sapiens, UniProt P36888); assay: Reaction Biology NanoBRET target engagement assay in HEK-293 cells, FLT3; conditions: NanoBRET FLT3 IC50, HEK-293 cells
T3 sequence (P36888 27-993): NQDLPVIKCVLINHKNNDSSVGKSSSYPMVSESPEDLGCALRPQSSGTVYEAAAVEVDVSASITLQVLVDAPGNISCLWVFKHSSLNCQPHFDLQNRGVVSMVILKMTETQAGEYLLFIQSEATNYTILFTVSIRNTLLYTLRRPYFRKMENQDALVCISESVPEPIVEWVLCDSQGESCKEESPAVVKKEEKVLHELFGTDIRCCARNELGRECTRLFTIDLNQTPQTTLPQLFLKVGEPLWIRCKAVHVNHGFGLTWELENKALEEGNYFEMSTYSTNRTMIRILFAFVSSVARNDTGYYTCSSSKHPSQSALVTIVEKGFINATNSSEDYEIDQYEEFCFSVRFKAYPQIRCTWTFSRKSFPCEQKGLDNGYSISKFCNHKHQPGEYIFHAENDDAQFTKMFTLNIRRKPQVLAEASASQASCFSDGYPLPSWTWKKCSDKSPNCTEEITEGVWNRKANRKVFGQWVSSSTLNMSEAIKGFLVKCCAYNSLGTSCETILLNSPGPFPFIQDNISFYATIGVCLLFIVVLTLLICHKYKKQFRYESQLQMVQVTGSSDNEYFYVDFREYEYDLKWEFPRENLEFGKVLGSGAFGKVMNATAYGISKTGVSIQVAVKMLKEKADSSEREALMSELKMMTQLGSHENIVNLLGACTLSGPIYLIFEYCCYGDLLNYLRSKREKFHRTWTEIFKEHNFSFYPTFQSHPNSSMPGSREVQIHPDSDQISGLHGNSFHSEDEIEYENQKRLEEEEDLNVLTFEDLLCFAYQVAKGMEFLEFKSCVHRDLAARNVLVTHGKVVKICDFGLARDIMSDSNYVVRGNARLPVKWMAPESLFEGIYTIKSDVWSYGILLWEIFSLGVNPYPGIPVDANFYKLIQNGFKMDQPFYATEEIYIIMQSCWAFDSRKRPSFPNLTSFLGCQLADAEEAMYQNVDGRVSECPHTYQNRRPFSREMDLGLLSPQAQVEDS

IRAK4 [6] = target: T1, IRAK4; assay: Reaction Biology NanoBRET target engagement assay in HEK-293 cells, IRAK4; conditions: NanoBRET IRAK4 IC50, HEK-293 cells
THP1 cells = assay: Combination drug screening, Cell Titer Glo, 10 × 10 matrix, THP1 cells; format: cell-based; conditions: THP1 cells; for Excess HSA Score: 10 × 10
FLT3 [7] = target: T4, FLT3 (Homo sapiens, UniProt P36888); assay: RBC HotSpot Kinase Assay, FLT3; conditions: FLT3 IC50
T4 sequence (P36888 610-943 limits assumed): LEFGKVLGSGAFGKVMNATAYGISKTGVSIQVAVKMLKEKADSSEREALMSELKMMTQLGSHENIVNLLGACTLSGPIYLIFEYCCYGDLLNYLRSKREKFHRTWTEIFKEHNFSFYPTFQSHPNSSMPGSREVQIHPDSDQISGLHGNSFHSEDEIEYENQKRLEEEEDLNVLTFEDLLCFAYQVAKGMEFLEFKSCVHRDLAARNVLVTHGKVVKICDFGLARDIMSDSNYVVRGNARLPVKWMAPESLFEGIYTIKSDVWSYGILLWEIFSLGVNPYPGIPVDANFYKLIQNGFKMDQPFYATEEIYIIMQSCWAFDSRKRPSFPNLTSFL

MOLM14(D835Y) cells = format: cell-based; conditions: MOLM14(D835Y) cells; for Excess HSA Score: 10 × 10
[8] = combination with (+)-BAY-1251152
[9] = combination with Eprenetapopt/APR-246
[10] = combination with Venetoclax (ABT-199)

| IC50 (IRAK4 [1]) | IC50 (IRAK1 [3]) | IC50 (MOLM14 F691L cells) | IC50 (MOLM14 D835Y cells) | IC50 (FLT3 [5]) | IC50 (IRAK4 [6]) | IC50 (FLT3 [7]) | Structure (SMILES) | Excess HSA Score (THP1 cells; [8]) | Excess HSA Score (THP1 cells; combination with AMG-232) | Excess HSA Score (THP1 cells; combination with AZD-5363) | Excess HSA Score (THP1 cells; [9]) | Excess HSA Score (THP1 cells; combination with Ivosidenib) | Excess HSA Score (THP1 cells; combination with Lenalidomide) | Excess HSA Score (THP1 cells; combination with Palbociclib) | Excess HSA Score (THP1 cells; combination with Prednisolone) | Excess HSA Score (THP1 cells; combination with SNDX-5613) | Excess HSA Score (THP1 cells; combination with TNO-155) | Excess HSA Score (THP1 cells; combination with Trametinib) | Excess HSA Score (THP1 cells; combination with Ulixertinib) | Excess HSA Score (THP1 cells; [10]) | further results |
| --- | --- | --- | --- | --- | --- | --- | --- | --- | --- | --- | --- | --- | --- | --- | --- | --- | --- | --- | --- | --- | --- |
| < 0.5 nM | 0.7 nM | 69 nM | 11 nM |  |  |  | COc1cc2ncc(-c3ccnc(N[C@H]4CNC[C@@H]4F)n3)n2cc1C(C)(C)O [Compound 43, 2-(3-(2-(((3S,4S)-4-fluoropyrrolidin-3-yl)amino)pyrimidin-4-yl)-7-methoxyimidazo[1,2-a]pyridin-6-yl)propan-2-ol] |  |  |  |  |  |  |  |  |  |  |  |  |  | Kd (IRAK1 [2]): 0.33 nM; Kd (IRAK4 [4]): 0.081 nM |
| 0.7 nM | 2 nM | 43 nM | 9 nM | 28 nM | < 0.5 nM | < 0.5 nM | COc1cc2ncc(-c3ccnc(N[C@H]4CNCC[C@@H]4F)n3)n2cc1C(C)(C)O [Compound 45, 2-(3-(2-(((3S,4S)-4-fluoropiperidin-3-yl)amino)pyrimidin-4-yl)-7-methoxyimidazo[1,2-a]pyridin-6-yl)propan-2-ol] | −402.7072 | 138.2 | −206.1 | 183 | 93.15 | 388.3 | −236 | 67.79 | 169.6 | −134.2061 | −226.2 | 218.0361 | −360.8 | Comments (THP1 cells; [8]): Synergistic; Comments (THP1 cells; combination with Prednisolone): Antagonistic; Excess HSA Score (MOLM14(D835Y) cells; [8]): 117.1; Excess HSA Score (MOLM14(D835Y) cells; combination with AMG-232): −212.5; Excess HSA Score (MOLM14(D835Y) cells; combination with AZD-5363): 384.6; Excess HSA Score (MOLM14(D835Y) cells; [9]): 477.7; Excess HSA Score (MOLM14(D835Y) cells; combination with Ivosidenib): −76.48; Excess HSA Score (MOLM14(D835Y) cells; combination with Lenalidomide): 515.9; Excess HSA Score (MOLM14(D835Y) cells; combination with Palbociclib): −172.2; Excess HSA Score (MOLM14(D835Y) cells; combination with Prednisolone): −357.5; Excess HSA Score (MOLM14(D835Y) cells; combination with SNDX-5613): 58.42; Excess HSA Score (MOLM14(D835Y) cells; combination with TNO-155): −372.6; Excess HSA Score (MOLM14(D835Y) cells; combination with Trametinib): −362.6; Excess HSA Score (MOLM14(D835Y) cells; combination with Ulixertinib): 288.2; Excess HSA Score (MOLM14(D835Y) cells; [10]): −803.3; Comments (MOLM14(D835Y) cells; combination with SNDX-5613): Antagonistic; Comments (MOLM14(D835Y) cells; [10]): Synergistic |
| 0.8 nM | 6 nM | 307 nM | 19 nM | 65 nM | 0.7 nM | < 0.5 nM | COc1ccn2c(-c3ccnc(N[C@H]4CNC[C@@H]4F)n3)cnc2c1 [Compound 28, N-((3S,4S)-4-fluoropyrrolidin-3-yl)-4-(7-methoxyimidazo[1,2-a]pyridin-3-yl)pyrimidin-2-amine] | −347.5 | 401.8 | −208.6 | −126.4 | 313 | 486.7 | −270.8 | 381.4 | 492.2 | 98.5766 | −880.8 | −60.25 | −1412 | Comments (THP1 cells; combination with TNO-155): Antagonistic; Comments (THP1 cells; [10]): Synergistic; Excess HSA Score (MOLM14(D835Y) cells; [8]): −477; Excess HSA Score (MOLM14(D835Y) cells; combination with AMG-232): −628.3; Excess HSA Score (MOLM14(D835Y) cells; combination with AZD-5363): −377.1; Excess HSA Score (MOLM14(D835Y) cells; [9]): 330.3; Excess HSA Score (MOLM14(D835Y) cells; combination with Ivosidenib): −92.39; Excess HSA Score (MOLM14(D835Y) cells; combination with Lenalidomide): 340.1; Excess HSA Score (MOLM14(D835Y) cells; combination with Palbociclib): −207.7; Excess HSA Score (MOLM14(D835Y) cells; combination with Prednisolone): −600.8; Excess HSA Score (MOLM14(D835Y) cells; combination with SNDX-5613): 49.85; Excess HSA Score (MOLM14(D835Y) cells; combination with TNO-155): −593.8; Excess HSA Score (MOLM14(D835Y) cells; combination with Trametinib): 115.3; Excess HSA Score (MOLM14(D835Y) cells; combination with Ulixertinib): 57.98; Excess HSA Score (MOLM14(D835Y) cells; [10]): −1089; Comments (MOLM14(D835Y) cells; combination with SNDX-5613): Antagonistic; Comments (MOLM14(D835Y) cells; [10]): Synergistic |
